pIC50: −log10 of the molar value.
Key:
[1] = molecular target: EGFR (UniProt P00533)
[2] = molecular target: EGFR (murine) (UniProt P00533); conditions: nih3t3
Chain of EGFR (murine) (P00533 whole entry, looked up): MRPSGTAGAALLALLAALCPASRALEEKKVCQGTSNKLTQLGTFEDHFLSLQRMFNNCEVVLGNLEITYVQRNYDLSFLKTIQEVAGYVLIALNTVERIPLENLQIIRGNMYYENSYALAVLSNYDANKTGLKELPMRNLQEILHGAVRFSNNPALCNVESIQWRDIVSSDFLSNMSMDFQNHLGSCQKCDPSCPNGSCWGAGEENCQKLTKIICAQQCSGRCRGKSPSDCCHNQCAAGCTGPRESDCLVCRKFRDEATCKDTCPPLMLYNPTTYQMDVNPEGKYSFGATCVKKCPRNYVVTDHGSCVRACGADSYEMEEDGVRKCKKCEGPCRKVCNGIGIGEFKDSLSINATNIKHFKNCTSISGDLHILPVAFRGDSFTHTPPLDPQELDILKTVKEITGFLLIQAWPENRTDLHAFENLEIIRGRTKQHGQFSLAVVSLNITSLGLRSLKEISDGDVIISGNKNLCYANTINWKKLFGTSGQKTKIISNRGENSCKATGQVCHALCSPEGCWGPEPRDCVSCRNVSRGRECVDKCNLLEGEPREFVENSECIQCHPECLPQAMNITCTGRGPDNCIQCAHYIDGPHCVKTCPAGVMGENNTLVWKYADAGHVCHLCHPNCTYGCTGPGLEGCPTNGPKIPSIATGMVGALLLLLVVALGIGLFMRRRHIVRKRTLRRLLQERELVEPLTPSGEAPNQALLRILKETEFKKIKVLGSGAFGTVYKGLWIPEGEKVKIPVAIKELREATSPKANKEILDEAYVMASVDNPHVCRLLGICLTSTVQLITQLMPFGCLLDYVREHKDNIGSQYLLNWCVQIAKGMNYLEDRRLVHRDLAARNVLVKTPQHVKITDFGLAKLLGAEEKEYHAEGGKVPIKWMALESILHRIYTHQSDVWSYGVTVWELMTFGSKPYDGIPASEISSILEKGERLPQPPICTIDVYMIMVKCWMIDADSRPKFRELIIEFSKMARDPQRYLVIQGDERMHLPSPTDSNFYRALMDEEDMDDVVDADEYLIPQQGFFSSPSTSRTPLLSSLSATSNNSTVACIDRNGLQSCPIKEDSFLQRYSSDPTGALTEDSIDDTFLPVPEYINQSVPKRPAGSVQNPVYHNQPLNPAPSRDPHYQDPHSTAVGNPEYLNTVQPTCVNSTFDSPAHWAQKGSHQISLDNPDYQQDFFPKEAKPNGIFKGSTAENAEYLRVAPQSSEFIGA

Chain of EGFR (P00533 whole entry, looked up): as above

O=C1Cc2c(CCOC(=O)Nc3ccccc3)cccc2N1
pIC50 [1]: < 4.00

Cc1[nH]c(CC2C(=O)Nc3ccccc32)c(C)c1CCCN(C)C (configuration not stated)
pIC50 [2]: < 4.30 | pIC50 [1]: < 4.00

COc1ccc(/C=C2/C(=O)Nc3cc(-c4ccsc4)ccc32)cc1-c1cccs1
pIC50 [1]: < 4.00

O=C1Cc2c(CCOC(=O)NS(=O)(=O)c3ccccc3)cccc2N1
pIC50 [1]: < 4.00

CC(C)(C)c1cc(CC2C(=O)Nc3ccc(Cl)cc32)cc(Br)c1O (configuration not stated)
pIC50 [1]: < 4.00

CCOCCc1cccc2c1CC(=O)N2
pIC50 [1]: < 4.00

COc1ccc(CC2C(=O)Nc3ccc(F)cc32)cc1C1CCCC1 (configuration not stated)
pIC50 [1]: < 4.00

O=C1Cc2c(CCOC(=S)Nc3ccccc3)cccc2N1
pIC50 [1]: < 4.00

COc1ccc(/C=C2/C(=O)Nc3cc(-c4cccs4)ccc32)cc1-c1cccs1
pIC50 [1]: < 4.00

COc1ccc(OCCc2cccc3c2CC(=O)N3)cc1
pIC50 [1]: < 4.00

O=C1Nc2cccc(CCO)c2/C1=C/c1ccccn1
pIC50 [2]: 5.52 | pIC50 [1]: < 4.00

Cc1[nH]c(CC2C(=O)Nc3ccc(Cl)cc32)c(C)c1CCCN(C)C (configuration not stated)
pIC50 [1]: < 4.00

O=C1Nc2cccc(CCO)c2/C1=C/c1ccc2[nH]ccc2c1
pIC50 [1]: < 4.00

Cc1[nH]c(/C=C2\C(=O)Nc3cccc(CCOc4cccc(C(C)C)c4)c32)c(C)c1CCCN(C)C
pIC50 [1]: < 4.00

O=C1Nc2cc(-c3ccccc3)ccc2C1Cc1cc(Br)ccc1O (configuration not stated)
pIC50 [1]: < 4.00

COc1ccc2c(c1)NC(=O)C2Cc1ccc(OC)c(-c2ccsc2)c1 (configuration not stated)
pIC50 [1]: < 4.00

COc1ccc(CC2C(=O)Nc3cc(NC(C)=O)ccc32)cc1-c1cccs1 (configuration not stated)
pIC50 [2]: < 4.30 | pIC50 [1]: < 4.00

CC(C)c1ccccc1OCCc1cccc2c1CC(=O)N2
pIC50 [1]: < 4.00

CC(C)c1cccc(OCCc2cccc3c2CC(=O)N3)c1
pIC50 [1]: < 4.00

O=C1Nc2ccccc2C1Cc1ccc2[nH]ccc2c1 (configuration not stated)
pIC50 [2]: < 4.30 | pIC50 [1]: < 4.00

COCCc1cccc2c1CC(=O)N2
pIC50 [1]: < 4.00

O=C1Nc2cc(-c3cccnc3)ccc2/C1=C\c1ccccc1O
pIC50 [1]: < 4.00

COc1ccccc1-c1ccc2c(c1)NC(=O)C2Cc1[nH]c(C)c(CCCN(C)C)c1C (configuration not stated)
pIC50 [1]: < 4.00

CC(C)c1ccc(OCCc2cccc3c2CC(=O)N3)cc1
pIC50 [1]: < 4.00

O=C(Nc1ccc2c(c1)NC(=O)C2Cc1cc(Cl)cc(Cl)c1O)C1CCCC1 (configuration not stated)
pIC50 [1]: < 4.00

O=C1Nc2ccc(F)cc2C1Cc1ccc(O)c(C2CCCC2)c1 (configuration not stated)
pIC50 [2]: < 4.30 | pIC50 [1]: < 4.00

COc1ccc(/C(=C2/C(=O)Nc3ccccc32)c2[nH]c(C)cc2C)cc1
pIC50 [2]: < 4.30

O=C1Nc2cc(-c3ccccc3)ccc2C1Cc1cccc(F)c1O (configuration not stated)
pIC50 [2]: < 4.30 | pIC50 [1]: < 4.00

COc1ccc(/C=C2/C(=O)Nc3cc(-c4cccnc4)ccc32)cc1-c1cccs1
pIC50 [1]: < 4.00

COc1ccc(CC2C(=O)Nc3ccc(CCN4CCOCC4)cc32)cc1-c1ccsc1 (configuration not stated)
pIC50 [2]: < 4.30 | pIC50 [1]: < 4.00

Cc1[nH]c(/C=C2\C(=O)Nc3cccc(CCOc4ccc(C(C)C)cc4)c32)c(C)c1CCC(=O)O
pIC50 [2]: < 4.30 | pIC50 [1]: < 4.00

O=C1Nc2cccc(CCO)c2/C1=C\c1ccc(Br)cc1
pIC50 [1]: < 4.00

Cc1[nH]c(CC2C(=O)Nc3ccc(Br)cc32)c(C)c1CCCN(C)C (configuration not stated)
pIC50 [1]: < 4.00

COc1c(C(C)C)cc(CC2C(=O)Nc3ccccc32)cc1C(C)C (configuration not stated)
pIC50 [2]: < 4.30 | pIC50 [1]: < 4.00

CCNC(=O)OCCc1cccc2c1CC(=O)N2
pIC50 [1]: < 4.00

CC(C)(C)NC(=O)OCCc1cccc2c1CC(=O)N2
pIC50 [1]: < 4.00

COc1cccc(-c2ccc3c(c2)NC(=O)C3Cc2ccccc2O)c1 (configuration not stated)
pIC50 [2]: < 4.30 | pIC50 [1]: < 4.00

CC(C)NC(=O)OCCc1cccc2c1CC(=O)N2
pIC50 [1]: < 4.00

Cc1ccc(O)c(/C=C2\C(=O)Nc3cccc(CCO)c32)n1
pIC50 [2]: < 4.30 | pIC50 [1]: < 4.00

CC(C)c1cc(CC2C(=O)Nc3ccc(Cl)cc32)cc(C(C)C)c1OCCN1CCOCC1 (configuration not stated)
pIC50 [1]: < 4.00

CC(=O)Nc1ccc2c(c1)NC(=O)C2Cc1ccc(OCCN2CCOCC2)c(C2CCCCC2)c1 (configuration not stated)
pIC50 [1]: < 4.00

Cc1cccc2c1C(Cc1ccc3[nH]ccc3c1)C(=O)N2 (configuration not stated)
pIC50 [2]: < 4.30 | pIC50 [1]: < 4.00

O=C1Nc2cccc(CCO)c2C1Cc1ccccc1 (configuration not stated)
pIC50 [1]: < 4.00

O=C1Cc2c(CCOc3cccc(-c4ccccc4)c3)cccc2N1
pIC50 [1]: < 4.00

Cc1[nH]c(/C=C2/C(=O)Nc3cc(-c4cccs4)ccc32)c(C)c1CCCN(C)C
pIC50 [1]: < 4.00

COc1ccc(CC2C(=O)Nc3cc(-c4ccccc4)ccc32)c(O)c1 (configuration not stated)
pIC50 [2]: < 4.30 | pIC50 [1]: < 4.00

Cc1cccc(CC2C(=O)Nc3cccc(CCO)c32)n1 (configuration not stated)
pIC50 [2]: < 4.30 | pIC50 [1]: < 4.00

O=C1Cc2c(CCOC(=O)NC3CCCCC3)cccc2N1
pIC50 [1]: < 4.00

O=C1Nc2cc(-c3ccsc3)ccc2/C1=C\c1ccccc1O
pIC50 [1]: < 4.00

O=C1Cc2c(CCOc3cncc(Cl)c3)cccc2N1
pIC50 [1]: < 4.00

O=C1Nc2cc(-c3cccs3)ccc2/C1=C\c1ccccc1O
pIC50 [1]: < 4.00

COc1cc(C)c(CC2C(=O)Nc3ccccc32)cc1C(C)C (configuration not stated)
pIC50 [1]: < 4.00

O=C1Nc2cccc(CCO)c2C1Cc1ccc(Br)cc1 (configuration not stated)
pIC50 [1]: < 4.00

COc1cccc(-c2ccc3c(c2)NC(=O)C3Cc2[nH]c(C)c(CCCN(C)C)c2C)c1 (configuration not stated)
pIC50 [1]: 4.31

COc1ccc(/C=C2\C(=O)Nc3cccc(CCO)c32)cc1-c1cccs1
pIC50 [1]: < 4.00

O=C(Nc1ccc2c(c1)NC(=O)C2Cc1cc(Cl)ccc1O)C1CCCC1 (configuration not stated)
pIC50 [1]: < 4.00

Cc1[nH]c(/C=C2/C(=O)Nc3cc(-c4cccnc4)ccc32)c(C)c1CCCN(C)C
pIC50 [1]: 4.92

Cc1[nH]c(/C=C2\C(=O)Nc3cccc(CCO)c32)c(C)c1CCCN(C)C
pIC50 [2]: 4.60 | pIC50 [1]: < 4.00

O=C1Cc2c(CCOC(=O)Nc3ccccc3-c3ccccc3)cccc2N1
pIC50 [1]: < 4.00

Cc1cccc(/C=C2\C(=O)Nc3cccc(CCO)c32)n1
pIC50 [1]: < 4.00

COc1ccc(-c2cc(CC3C(=O)Nc4ccccc43)c(O)cc2OC)cc1 (configuration not stated)
pIC50 [1]: < 4.00

COc1ccc(-c2ccc3c(c2)NC(=O)C3Cc2[nH]c(C)c(CCCN(C)C)c2C)cc1 (configuration not stated)
pIC50 [1]: < 4.00
